Legend:
[1] = system: SOPT2; test: Influence of compounds on [3H]DADLE uptake in RGC-5 cells; type: cell-based, rat; conditions: compound 1 mM; for [3H]DADLE uptake in the presence of compound, % of control (Table 2): [3H]DADLE 10 nM, 30 min, control = 100; for stimulation of [3H]DADLE uptake: p < 0.001
[2] = system: RGC-5 cells; test: Uptake of FITC-labeled HIV-1 Tat47–57 in RGC-5 cells; type: cell-based, rat; conditions: FITC-Tat 25 nM, 15 min, NaCl-containing buffer, confocal microscopy
[3] = system: SOPT1; test: Uptake of [3H]deltorphin II in RGC-5 cells and influence of tripeptides; conditions: RGC-5 cells, deltorphin II 25 nM
[4] = system: SOPT2; test: Uptake of [3H]DADLE in RGC-5 cells; conditions: DADLE 25 nM, 30 min of incubation

Row | Compound | [3H]DADLE uptake in the presence of compound, % of control (Table 2) [1] | stimulation of [3H]DADLE uptake [1] | also measured
1 | O=C1CC[C@@]2(O)[C@H]3Cc4ccc(O)c5c4[C@@]2(CCN3CC2CC2)[C@H]1O5 [Naltrexone, naltrexone] | 150% | 50% | –
2 | FITC-Tat47–57: Fluorescein isothiocyanate-conjugated Tat47–57 peptide | – | – | cellular uptake of FITC-labeled peptide (cell-associated green fluorescence) [2]: enters RGC-5 cells
3 | C=CCN1CC[C@]23c4c5ccc(O)c4O[C@H]2C(=O)CC[C@@]3(O)[C@H]1C5 [Naloxone, naloxone] | 133% | 33% | –
4 | CC(C)[C@H](NC(=O)[C@H](CCC(=O)O)NC(=O)[C@H](Cc1ccccc1)NC(=O)[C@@H](C)NC(=O)[C@@H](N)Cc1ccc(O)cc1)C(=O)N[C@H](C(=O)NCC(N)=O)C(C)C [Deltorphin II] | – | – | uptake of deltorphin II ([3]; absence of Na+): 1.1 ± 0.1 pmol/mg of protein/30 min; uptake of deltorphin II ([3]; presence of Na+): 3.6 ± 0.2 pmol/mg of protein/30 min
5 | CC(C)C[C@@H](NC(=O)[C@H](Cc1ccccc1)NC(=O)CNC(=O)[C@@H](C)NC(=O)[C@@H](N)Cc1ccc(O)cc1)C(=O)O [DADLE, [D-Ala^2, D-Leu^5]-Enkephalin] | – | – | uptake in the presence of Na+ relative to uptake in the absence of Na+ [4]: 2–3 times
